This note sets out measurements from US20250236611A1, “PYRAZOLE COMPOUNDS AND USES THEREOF” (ALCON INC., priority 2021, published 2025).

What all share (format): biochemical
Common to all, as to settings: 10 nM JAK enzyme, 800 nM Abl peptide, room temperature 75 min

The target of one assay is JAK2 (Homo sapiens, UniProt O60674). The assay can be described thus: JAK assay (KINASE-GLO luminescent kinase assay), JAK2. The procedure, abridged: (§1)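 The 2× mix gave 10 nM kinase, 800 nM Abl peptide and 2 µM DTT, and ATP was added as a 4× stock (2 µM), in HEPES pH 7.5 buffer. Compounds ran as an 11-point series, 100 µM–10 pM final in 2.5% DMSO, for 75 min at RT. Remaining ATP was read by luminescence against DMSO control, and 4-parameter IC50s were converted to Ki by Cheng-Prusoff.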
For orientation: Kinase-Glo measures the ATP left after a reaction by luminescence.

The target of another assay is JAK1 (Homo sapiens, UniProt P23458). The experiment in a line: JAK assay (KINASE-GLO luminescent kinase assay), JAK1. A digest of the protocol: as §1
For the next assay, the target named is TYK2 (Homo sapiens, UniProt P29597). The experiment in a line: JAK assay (KINASE-GLO luminescent kinase assay), TYK2.
In another assay the target is T1, JAK3 (Homo sapiens, UniProt P52333).
T1 sequence (P52333 1-1124): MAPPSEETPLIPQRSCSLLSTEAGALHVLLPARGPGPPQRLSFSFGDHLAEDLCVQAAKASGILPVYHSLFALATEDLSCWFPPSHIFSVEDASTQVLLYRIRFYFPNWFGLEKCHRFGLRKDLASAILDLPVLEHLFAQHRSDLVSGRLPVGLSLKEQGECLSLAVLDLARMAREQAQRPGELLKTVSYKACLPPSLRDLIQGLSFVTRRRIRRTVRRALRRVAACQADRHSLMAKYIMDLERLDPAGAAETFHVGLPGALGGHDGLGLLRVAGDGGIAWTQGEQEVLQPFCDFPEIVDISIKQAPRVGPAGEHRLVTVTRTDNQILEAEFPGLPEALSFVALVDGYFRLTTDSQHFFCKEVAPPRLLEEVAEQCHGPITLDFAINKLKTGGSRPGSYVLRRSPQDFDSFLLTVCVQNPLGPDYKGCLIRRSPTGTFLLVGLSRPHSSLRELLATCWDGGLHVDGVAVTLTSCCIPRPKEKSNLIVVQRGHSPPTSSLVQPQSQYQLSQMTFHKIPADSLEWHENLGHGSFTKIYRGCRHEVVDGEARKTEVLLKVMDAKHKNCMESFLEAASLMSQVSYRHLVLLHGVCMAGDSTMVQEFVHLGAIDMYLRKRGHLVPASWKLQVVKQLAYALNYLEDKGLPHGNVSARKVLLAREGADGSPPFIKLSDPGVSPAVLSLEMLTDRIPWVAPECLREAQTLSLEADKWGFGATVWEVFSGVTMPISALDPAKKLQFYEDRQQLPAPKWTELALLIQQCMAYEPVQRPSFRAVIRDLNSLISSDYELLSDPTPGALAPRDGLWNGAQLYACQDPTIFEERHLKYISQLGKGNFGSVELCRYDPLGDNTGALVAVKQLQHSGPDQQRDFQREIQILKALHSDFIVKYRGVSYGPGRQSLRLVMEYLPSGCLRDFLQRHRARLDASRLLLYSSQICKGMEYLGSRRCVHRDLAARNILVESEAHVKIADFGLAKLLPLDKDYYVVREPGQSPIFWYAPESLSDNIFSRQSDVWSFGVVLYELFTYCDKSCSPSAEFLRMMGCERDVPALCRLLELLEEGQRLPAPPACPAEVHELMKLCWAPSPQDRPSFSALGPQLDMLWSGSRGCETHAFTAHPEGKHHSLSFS
The assay can be described thus: JAK assay (KINASE-GLO luminescent kinase assay), JAK3. The procedure, abridged:
as §1

Usually IC50 stands for the concentration needed to halve the response being measured. A higher IC50 goes with weaker potency.

SMILES strings stand for the structures.

TYK2, sequence (P29597 whole entry): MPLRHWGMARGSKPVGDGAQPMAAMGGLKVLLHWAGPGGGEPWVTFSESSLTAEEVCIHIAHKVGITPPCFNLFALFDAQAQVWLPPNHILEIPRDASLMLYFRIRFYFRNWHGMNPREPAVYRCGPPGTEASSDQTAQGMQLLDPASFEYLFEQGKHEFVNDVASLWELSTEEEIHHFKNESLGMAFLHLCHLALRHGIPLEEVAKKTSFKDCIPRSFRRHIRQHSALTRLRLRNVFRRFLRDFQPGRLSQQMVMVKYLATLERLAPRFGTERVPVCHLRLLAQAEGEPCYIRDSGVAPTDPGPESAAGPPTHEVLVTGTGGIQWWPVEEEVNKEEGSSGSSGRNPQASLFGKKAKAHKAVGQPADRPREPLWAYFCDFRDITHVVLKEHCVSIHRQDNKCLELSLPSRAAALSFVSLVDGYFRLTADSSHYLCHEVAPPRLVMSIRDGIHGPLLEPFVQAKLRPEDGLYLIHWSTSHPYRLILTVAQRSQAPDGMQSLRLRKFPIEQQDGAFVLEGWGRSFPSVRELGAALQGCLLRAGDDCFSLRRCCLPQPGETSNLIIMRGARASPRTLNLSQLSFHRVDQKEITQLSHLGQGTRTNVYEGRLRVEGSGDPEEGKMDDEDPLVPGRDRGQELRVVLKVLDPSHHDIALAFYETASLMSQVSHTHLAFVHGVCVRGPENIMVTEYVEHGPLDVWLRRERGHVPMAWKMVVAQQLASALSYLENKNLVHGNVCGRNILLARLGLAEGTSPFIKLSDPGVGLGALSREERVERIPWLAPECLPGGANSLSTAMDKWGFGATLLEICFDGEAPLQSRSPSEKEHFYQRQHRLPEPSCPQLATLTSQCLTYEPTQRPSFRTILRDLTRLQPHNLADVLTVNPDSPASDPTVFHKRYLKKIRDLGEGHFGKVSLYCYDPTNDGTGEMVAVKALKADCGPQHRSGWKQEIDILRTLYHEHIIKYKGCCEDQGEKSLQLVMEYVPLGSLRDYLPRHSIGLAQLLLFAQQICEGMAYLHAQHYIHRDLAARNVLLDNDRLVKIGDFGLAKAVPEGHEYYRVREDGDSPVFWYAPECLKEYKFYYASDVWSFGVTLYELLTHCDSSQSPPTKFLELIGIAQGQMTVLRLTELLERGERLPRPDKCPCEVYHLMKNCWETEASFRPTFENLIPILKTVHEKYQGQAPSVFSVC
JAK2, sequence (O60674 whole entry): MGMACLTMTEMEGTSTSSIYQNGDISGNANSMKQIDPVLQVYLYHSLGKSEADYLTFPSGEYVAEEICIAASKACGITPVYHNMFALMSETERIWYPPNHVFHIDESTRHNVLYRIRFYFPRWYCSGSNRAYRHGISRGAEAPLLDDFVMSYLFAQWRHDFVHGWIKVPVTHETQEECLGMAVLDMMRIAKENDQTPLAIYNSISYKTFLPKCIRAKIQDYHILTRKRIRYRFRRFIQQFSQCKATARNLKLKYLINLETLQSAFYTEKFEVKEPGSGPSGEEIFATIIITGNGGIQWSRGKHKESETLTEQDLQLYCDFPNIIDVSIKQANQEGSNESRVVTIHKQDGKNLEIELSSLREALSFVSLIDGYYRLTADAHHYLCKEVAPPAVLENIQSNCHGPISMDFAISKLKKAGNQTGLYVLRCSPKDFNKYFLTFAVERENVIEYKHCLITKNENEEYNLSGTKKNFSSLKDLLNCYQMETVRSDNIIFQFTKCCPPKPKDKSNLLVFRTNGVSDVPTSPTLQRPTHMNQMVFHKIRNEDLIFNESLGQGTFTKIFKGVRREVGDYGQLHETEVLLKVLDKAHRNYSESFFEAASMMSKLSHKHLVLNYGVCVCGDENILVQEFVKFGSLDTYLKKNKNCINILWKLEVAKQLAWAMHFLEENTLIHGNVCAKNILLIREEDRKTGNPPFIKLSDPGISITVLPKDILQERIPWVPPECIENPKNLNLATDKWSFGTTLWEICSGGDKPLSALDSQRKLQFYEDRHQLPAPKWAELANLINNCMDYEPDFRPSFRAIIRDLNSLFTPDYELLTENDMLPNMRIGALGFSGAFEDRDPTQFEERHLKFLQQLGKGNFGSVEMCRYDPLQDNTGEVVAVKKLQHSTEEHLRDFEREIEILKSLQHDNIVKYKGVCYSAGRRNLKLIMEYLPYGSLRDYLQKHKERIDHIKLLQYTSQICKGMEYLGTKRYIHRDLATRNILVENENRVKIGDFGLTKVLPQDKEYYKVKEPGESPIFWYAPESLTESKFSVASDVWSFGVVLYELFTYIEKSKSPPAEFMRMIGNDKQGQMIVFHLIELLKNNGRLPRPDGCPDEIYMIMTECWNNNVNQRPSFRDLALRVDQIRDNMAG
JAK1, sequence (P23458 whole entry): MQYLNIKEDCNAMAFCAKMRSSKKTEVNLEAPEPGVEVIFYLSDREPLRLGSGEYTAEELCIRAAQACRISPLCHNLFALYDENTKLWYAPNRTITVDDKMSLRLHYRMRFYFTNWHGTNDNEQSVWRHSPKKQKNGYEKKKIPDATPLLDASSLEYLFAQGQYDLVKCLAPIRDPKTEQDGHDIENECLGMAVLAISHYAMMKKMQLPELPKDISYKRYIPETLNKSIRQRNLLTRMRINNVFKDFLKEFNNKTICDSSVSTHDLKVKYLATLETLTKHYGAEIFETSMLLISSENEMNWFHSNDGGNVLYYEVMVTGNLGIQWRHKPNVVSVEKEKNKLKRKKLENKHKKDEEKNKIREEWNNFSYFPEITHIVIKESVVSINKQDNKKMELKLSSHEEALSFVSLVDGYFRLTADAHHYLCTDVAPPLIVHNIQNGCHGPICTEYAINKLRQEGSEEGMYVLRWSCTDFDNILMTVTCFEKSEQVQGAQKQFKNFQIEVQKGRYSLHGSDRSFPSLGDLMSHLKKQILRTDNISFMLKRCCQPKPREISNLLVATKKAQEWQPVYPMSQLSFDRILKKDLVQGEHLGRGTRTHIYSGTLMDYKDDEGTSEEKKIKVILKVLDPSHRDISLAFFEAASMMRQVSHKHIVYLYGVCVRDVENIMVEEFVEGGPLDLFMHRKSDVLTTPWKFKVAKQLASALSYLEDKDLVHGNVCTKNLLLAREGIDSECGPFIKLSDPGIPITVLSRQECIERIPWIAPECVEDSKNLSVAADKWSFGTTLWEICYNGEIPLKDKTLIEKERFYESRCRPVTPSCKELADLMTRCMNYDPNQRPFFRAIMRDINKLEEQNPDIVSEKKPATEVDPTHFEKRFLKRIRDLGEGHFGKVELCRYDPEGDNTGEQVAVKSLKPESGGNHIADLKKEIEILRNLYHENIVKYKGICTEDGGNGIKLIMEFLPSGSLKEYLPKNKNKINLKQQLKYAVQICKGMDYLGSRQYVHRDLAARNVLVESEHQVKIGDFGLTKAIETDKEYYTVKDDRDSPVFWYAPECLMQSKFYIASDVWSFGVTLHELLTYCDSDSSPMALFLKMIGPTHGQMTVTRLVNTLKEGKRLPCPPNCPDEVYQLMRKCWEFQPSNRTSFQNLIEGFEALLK

`Cc1cnc(Nc2cn(C)nn2)nc1-c1cnn(CC2(CF)CC2)c1` [C[N]1C═C(NC2═NC(═C(C)C═N2)C3═C[N]]: the IC50 was below 100 nM against JAK2, below 1000 nM against JAK1, below 1000 nM against TYK2 and below 1000 nM against JAK3.
On to `Cn1cc(Nc2ncc(Cl)c(-c3cnn(CCC4CC4)c3)n2)cn1` [C[N]1C═C(NC2═NC(═C], for which the IC50 against JAK2 was below 10 nM; on JAK1, below 100 nM; against TYK2, below 100 nM; at JAK3, below 10 nM.
`Cn1ccc(Nc2ncc(Cl)c(-c3cnn(CCC#N)c3)n2)n1` [C[N]1C═CC(═N1)NC2═NC(═C]: the IC50 on JAK2 was below 10 nM; against JAK1 it was below 1000 nM; at TYK2, below 1000 nM; on JAK3, below 1000 nM.
Turning to `CS(=O)(=O)N(c1ncc(Cl)c(-c2cnn(CCC#N)c2)n1)S(C)(=O)=O` [C[S](═O)(═O)N(C1═NC(═C], the IC50 at JAK2 was below 100000 nM; on JAK1, above 50000 nM; against TYK2, above 50000 nM; against JAK3, above 50000 nM.
Take `CS(=O)(=O)N(c1ncc(Cl)c(-c2cnn(CCC#N)c2)n1)S(C)(=O)=O` [C[S](═O)(═O)NC1═NC(═C]: the IC50 against JAK2, on JAK1, against TYK2 and against JAK3 was below 100000 nM each time.
Turning to `Clc1cnc(Nc2cccc(CN3CCC3)c2)nc1` [ClC1═C(N═C(NC2═CC(═CC═C2)CN3CCC3)N═C1)], the IC50 at JAK2 is below 10 nM; on JAK1 it was below 100 nM; at TYK2 it was below 10 nM; on JAK3 it was below 10 nM.
Take `N#CC1(Cn2cc(-c3nc(Nc4ccns4)ncc3Cl)cn2)CCC1` [ClC1═C(N═C(NC2═CC═NS2)N═C1)C3═C[N]]: the IC50 against JAK2 was below 10 nM; at JAK1, below 100 nM; at TYK2 it was below 100 nM; on JAK3, below 100 nM.
Turning to `N#CCCn1cc(-c2nc(Nc3ccsc3)ncc2Cl)cn1` [ClC1═C(N═C(NC2═CSC═C2)N═C1)C3═C[N]], the IC50 against JAK2, against JAK1, against TYK2 and against JAK3 was below 100000 nM in each case.
For the compound `Clc1cnc(NC23CC(C2)C3)nc1-c1cnn(Cc2cccs2)c1` [ClC1═C(N═C(NC23CC(C2)C3)N═C1)C4═C[N]], the IC50 is above 50000 nM at JAK2, above 50000 nM against JAK1, above 50000 nM on TYK2 and below 100000 nM on JAK3.
Consider `N#CC1(Cn2cc(-c3nc(Nc4cnc5ccnn5c4)ncc3Cl)cn2)CCC1` [ClC1═C(N═C], for which the IC50 against JAK2 is below 100 nM; against JAK1, below 100000 nM; against TYK2 it was below 1000 nM; at JAK3, below 1000 nM.
In the case of `N#CCCn1cc(-c2nc(NC3CCNCC3(F)F)ncc2Cl)cn1` (stereo not shown) [FC1(F)CNCCC1NC2═NC(═C], the IC50 was below 100000 nM at JAK2, above 50000 nM against JAK1, above 50000 nM at TYK2 and above 50000 nM at JAK3.
With `N#CCCn1cc(-c2nc(Nc3cccc(CN4CC(F)C4)c3)ncc2Cl)cn1` [FC1CN(C1)CC2═CC═CC(═C2)NC3═NC(═C], the IC50 was below 10 nM against JAK2, below 100 nM against JAK1, below 10 nM against TYK2 and below 10 nM at JAK3.
With `N#CCCn1cc(-c2nc(Nc3ccc(N4CCOCC4)c(F)c3)ncc2Cl)cn1` [FC1═CC(═CC═C1N2CCOCC2)NC3═NC(═C], the IC50 against JAK2, against JAK1, on TYK2 and against JAK3 was below 10 nM throughout.
As for `N#CCCn1cc(-c2nc(Nc3ccc(N4CCOCC4)cc3F)ncc2Cl)cn1` [FC1═CC(═CC═C1NC2═NC(═C], the IC50 against JAK2 was below 10 nM; against JAK1, below 1000 nM; on TYK2, below 100 nM; at JAK3 it was below 100 nM.
With `N#CCCn1cc(-c2nc(Nc3cc(C(F)(F)F)no3)ncc2Cl)cn1` [FC(F)(F)C1═NOC(═C1)NC2═NC(═C], the IC50 is below 1000 nM on JAK2, above 50000 nM against JAK1, above 50000 nM on TYK2 and above 50000 nM at JAK3.
Regarding `FC(F)C1(Cn2cc(-c3nc(Nc4ccc5cnoc5c4)ncc3Cl)cn2)COC1` [FC(F)C1(COC1)C[N]2C═C(C═N2)C3═C], the IC50 was below 10 nM at JAK2, below 1000 nM on JAK1, below 1000 nM on TYK2 and below 100 nM on JAK3.
As to `N#CCC1(Cn2cc(-c3ccnc(Nc4ccns4)n3)cn2)CC1` [N#CCC1(CC1)C[N]2C═C(C═N2)C3═CC═NC], the IC50 on JAK2 is below 10 nM; against JAK1, below 100 nM; at TYK2 it was below 100 nM; against JAK3 it was below 100 nM.
With `N#CCC1(Cn2cc(-c3nc(Nc4ccns4)ncc3C3CC3)cn2)CC1` [N#CCC1(CC1)C[N]2C═C(C═N2)C3═C], the IC50 was below 10 nM against JAK2, below 100 nM against JAK1, below 100 nM against TYK2 and below 100 nM on JAK3.
For `NC(=O)CCn1cc(-c2nc(NC3CCNCC3(F)F)ncc2Cl)cn1` (stereo not shown) [NC(═O)CC[N]1C═C(C═N1)C2═C], the IC50 is below 100000 nM on JAK2, above 50000 nM on JAK1, above 50000 nM against TYK2 and above 50000 nM on JAK3.
With `NCc1cccc(Nc2ncc(Cl)c(-c3cnn(CC4(CF)CC4)c3)n2)c1` [NCC1═CC═CC(═C1)NC2═NC(═C], the IC50 at JAK2 was below 10 nM; at JAK1, below 100 nM; at TYK2 it was below 100 nM; on JAK3, below 10 nM.
With `N#CCCn1cc(-c2nc(Nc3ccc(C(=O)O)cc3)ncc2Cl)cn1` [OC(═O)C1═CC═C(NC2═NC(═C], the IC50 is below 10 nM at JAK2, below 10 nM against JAK1, below 10 nM against TYK2 and below 100 nM against JAK3.
As for `N#CCCn1cc(-c2nc(Nc3cccc(C(=O)O)c3)ncc2Cl)cn1` [OC(═O)C1═CC═CC(═C1)NC2═NC], the IC50 at JAK2 is below 10 nM; against JAK1, below 1000 nM; at TYK2, below 1000 nM; against JAK3, below 1000 nM.
Take `N#CC1(Cn2cc(-c3nc(Nc4ccc(C(=O)O)nc4)ncc3Cl)cn2)CC1` [OC(═O)C1═NC═C(NC2═NC(═C]: the IC50 was below 10 nM against JAK2, below 100 nM against JAK1, below 100 nM against TYK2 and below 1000 nM at JAK3.
`N#CCC1(Cn2cc(-c3ccnc(Nc4cc(CO)ns4)n3)cn2)CC1` [OCC1═NSC(═C1)NC2═NC(═CC═N2)C3═C[N]]: the IC50 is below 10 nM against JAK2, below 100 nM against JAK1, below 10 nM on TYK2 and below 100 nM on JAK3.
With `OCC(O)c1cccc(Nc2ncc(Cl)c(-c3cnn(CC4(CF)CC4)c3)n2)c1` (stereo not shown) [OCC(O)C1═CC═CC(═C1)NC2═NC(═C], the IC50 on JAK2, on JAK1, against TYK2 and on JAK3 was below 10 nM each time.
For the compound `N#CCCn1cc(-c2nc(Nc3ccc(CCO)cc3)ncc2Cl)cn1` [OCCC1═CC═C(NC2═NC(═C], the IC50 on JAK2 is below 10 nM; against JAK1 it was below 100 nM; against TYK2, below 10 nM; against JAK3 it was below 100 nM.
On to `N#CCCn1cc(-c2nc(Nc3ccc(CCOP(=O)(O)O)cc3)ncc2Cl)cn1` [O[P](O)(═O)OCCC1═CC═C(NC2═NC(═C], for which the IC50 at JAK2 was below 10 nM; on JAK1, below 100 nM; at TYK2, below 10 nM; at JAK3, below 100 nM.
Turning to `N#CCCn1cc(-c2ccnc(NC(=O)C3CC3)n2)cn1` [O═C(NC1═NC(═CC═N1)C2═C[N]], the IC50 against JAK2 is below 100000 nM; on JAK1, below 100000 nM; on TYK2, below 100000 nM; on JAK3 it was above 50000 nM.
